Each block holds one sequence with its values, some of them ahead of it.
Molecular target: T1, MAL^TIR (Homo sapiens, UniProt P58753)
T1 construct: MAL (residues 79–221); 6xHis; made in house; host or cells: E. coli BL21 (DE3)
Assay: T‐Surf phage library (P8 and P3) selection against MAL^TIR, four rounds, NGS read counts
Type: binding
Settings: for P8_MAL Rank (after) / P8_MAL Rank (before): P8 library; for Rank (after): P8_MAL: rank by count after grouping; for Rank (before): P8_MAL: rank by count before grouping; for Population: P8_MAL pool: P8 T-Surf phage library, 4th round of selection against MAL TIR, share of NGS reads
Method: T‐Surf libraries were screened against the immobilized TIR domains of two major human TLR adaptor proteins, MAL^TIR and MyD88^TIR, allowing cross‐species selection of TIR‐binding motifs with 190 946 TIR‐derived peptides in a single binding assay (Scheme 1). Enriched phage pools from the fourth round of selection were analyzed using NGS after barcoding the peptide‐coding regions of the phage pools.
Phage display screening was performed by coating two wells of a 96‐well plate (Maxisorp, Thermo Fisher Scientific) with 100 µL of 5 µg mL^−1 TIR domains overnight; then, the coated wells were blocked with 200 µL of blocking buffer (0.2% BSA in PBS) and set aside for 1 h at 4 °C with gentle shaking. Next, 100 µL of the phage library was added to the wells and incubated for 1 h at room temperature (RT; 20 – 22 °C) with gentle shaking. The plate was washed four times with PBS containing 0.5% Tween‐20; the bound phages were eluted by adding 100 µL of 100 mM HCl to each well. The elute was neutralized with 10 µL of 1.0 M Tris‐HCl (pH 11.0). E. coli TG1 cells were grown to the log phase (A600 = ≈0.6), and 1 mL of the culture was incubated with 100 µL of the eluted phages for 30 min at 37 °C, with shaking at 200 rpm. Next, 1 µL of M13KO7 helper phages was added, followed by incubation for 45 min at 37 °C, with shaking. Subsequently, the cells were transferred to 25 mL of 2× yeast extract tryptone/carbenicillin/kanamycin medium and incubated overnight at 37 °C with shaking at 200 rpm. The amplified phages were precipitated with 20% PEG‐8000/2.5 M NaCl to be used for the next round of selection.
The naïve T‐Surf libraries in P8 and P3 and the enriched phage pools after four rounds were barcoded for NGS as previously described.^[ [59] ^] Briefly, 5 µL of the phage pool was used as a template for 20 cycles of a 50 µL PCR reaction using […] each of forward and reverse barcoded primers and PrimeSTAR Max DNA Polymerase. The PCR products were purified using Expin Gel SV (GeneAll). The NGS samples were quantified using qPCR, following the qPCR Quantification Protocol Guide (KAPA Library Quantification kits for Illumina Sequencing Platform), and qualified using the TapeStation High Sensitivity D1000 ScreenTape (Agilent Technologies). The indexed libraries were further sequenced by Macrogen (Seoul, Republic of Korea) using the NovaSeq platform (Illumina) with 100 bp paired‐end reads. The reads were demultiplexed by barcodes and filtered for an average Phred quality score of at least 30, followed by trimming the flanking consensus sequences using Cutadapt (version 2.3). Peptide sequence populations were analyzed according to the read counts.

[1] = selection against MAL, rank after grouping
[2] = selection against MAL, rank before grouping
[3] = selection against MAL, rank by count after grouping
[4] = selection against MAL, rank by count before grouping
[5] = 4R selection against MAL, rank after grouping
[6] = 4R selection against MAL, rank before grouping
[7] = selection against MAL TIR, rank by count after grouping
[8] = selection against MAL TIR, rank by count before grouping

T1 sequence (P58753 79-221): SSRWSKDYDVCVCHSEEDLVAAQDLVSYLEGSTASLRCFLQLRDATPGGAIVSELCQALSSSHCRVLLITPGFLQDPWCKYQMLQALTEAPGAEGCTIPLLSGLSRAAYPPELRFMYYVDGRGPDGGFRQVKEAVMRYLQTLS

Sequence: AFLYSLLFNRTHPNYF
P8_MAL Rank (after) [3]: 702
P8_MAL Rank (before) [4]: 1809

Sequence: AFLYSLLISLPETANI
P8_MAL Rank (after) [1]: 543
P8_MAL Rank (before) [2]: 1810

Sequence: AFLYTFLFNLTHQTNS
P8_MAL Rank (after) [5]: 590
P8_MAL Rank (before) [6]: 1883

Sequence: AFLYTFLIILPIRPNF
P8_MAL Rank (after) [5]: 589
P8_MAL Rank (before) [6]: 1835

Sequence: AFLYTFLINDPSDQF
P8_MAL Rank (after) [7]: 214
P8_MAL Rank (before) [8]: 1836

Sequence: AFLYTFLINLAHPTNF
Population: 0.00278%

Sequence: AFLYTFLINLTHPPI
Rank (after): 190
Rank (before): 1854

Sequence: AFLYTFLINLTHPQF
P8_MAL Rank (after) [7]: 275
P8_MAL Rank (before) [8]: 1852

Sequence: AFLYTFLINLTHPTIH
Rank (after): 161
Rank (before): 852

Sequence: AFLYTFLINLTHPTKV
P8_MAL Rank (after) [1]: 514
P8_MAL Rank (before) [2]: 1851

Sequence: AFLYTFLINLTHPTNL
Population: 0.00371%

Sequence: AFLYTFLINLTHPTNS
Population: 0.0034%

Sequence: AFLYTFLINLTHQTNF
Population: 0.0034%

Sequence: AFLYTFLINLTIRPIX
Population: 0.00371%

Sequence: AFLYTFLINLTRPTNF
Population: 0.0034%

Sequence: AFLYTFLINLTRQTNF
Rank (after): 147
Rank (before): 1837

Sequence: AFLYTFLINPTHPTNF
Population: 0.00309%

Sequence: AFLYTFLINPTHPTNS
P8_MAL Rank (after) [7]: 255
P8_MAL Rank (before) [8]: 1859

Sequence: AFLYTFLINRTHPTNF
Population: 0.0034%

Sequence: AFLYTFLISLTHPTNF
Population: 0.00402%

Sequence: AFLYTFLKNLMRKPTF
Rank (after): 422
Rank (before): 1874

Sequence: AFLYTFLKNLTHTPTF
Rank (after): 410
Rank (before): 1876

Sequence: AFLYTFLLNLTHPTHF
Rank (after): 162
Rank (before): 1829

Sequence: AFLYTFLLNLTHQPTF
P8_MAL Rank (after) [1]: 485
P8_MAL Rank (before) [2]: 1831

Sequence: AFLYTFLNNLIHPTTF
Rank (after): 145
Rank (before): 1868

Sequence: AFLYTFLNNLTHPTKF
Rank (after): 94
Rank (before): 1870

Sequence: AFLYTFLNNLTHPTNF
Population: 0.00309%

Sequence: AFLYTFLNNLTHTTNI
P8_MAL Rank (after) [1]: 536
P8_MAL Rank (before) [2]: 1872

Sequence: AFLYTFLNTLTHPTNF
P8_MAL Rank (after) [7]: 209
P8_MAL Rank (before) [8]: 1867

Sequence: AFLYTFLVNLTHPPNF
Rank (after): 134
Rank (before): 1827

Further lines, results first:

P8_MAL Rank (after) [1]: 494
P8_MAL Rank (before) [2]: 1818
Sequence: AFLYSFLTNLTHPTEN

P8_MAL Rank (after) [1]: 509
P8_MAL Rank (before) [2]: 1822
Sequence: AFLYTFDQSDPSDQF

P8_MAL Rank (after) [1]: 497
P8_MAL Rank (before) [2]: 1828
Sequence: AFLYTFLGHLYNALVQAGIH

P8_MAL Rank (after) [3]: 688
P8_MAL Rank (before) [4]: 1833
Sequence: AFLYTFLIILTHPINF

Rank (after): 101
Rank (before): 1862
Sequence: AFLYTFLIKLTHPPNF

P8_MAL Rank (after) [5]: 628
P8_MAL Rank (before) [6]: 1838
Sequence: AFLYTFLINLPHTNNF

P8_MAL Rank (after) [7]: 228
P8_MAL Rank (before) [8]: 1866
Sequence: AFLYTFLINLTHKPTF

Rank (after): 95
Rank (before): 1842
Sequence: AFLYTFLINLTHLPNF

Population: 0.00463%
Sequence: AFLYTFLINLTHPNNF

Population: 0.00309%
Sequence: AFLYTFLINLTHPSNF

Population: 0.0034%
Sequence: AFLYTFLINLTHPTTF

Rank (after): 401
Rank (before): 1858
Sequence: AFLYTFLINLTPPTEY

P8_MAL Rank (after) [3]: 709
P8_MAL Rank (before) [4]: 1873
Sequence: AFLYTFLKNLPHPTNI

Rank (after): 97
Rank (before): 1875
Sequence: AFLYTFLKNLTHPTTF

P8_MAL Rank (after) [7]: 223
P8_MAL Rank (before) [8]: 1830
Sequence: AFLYTFLLNLTHPTNL

Rank (after): 468
Rank (before): 1823
Sequence: AFLYTFLVNLTHPTMF

From PMC11714206, “Massively Parallel Screening of Toll/Interleukin‐1 Receptor (TIR)‐Derived Peptides Reveals Multiple Toll‐Like Receptors (TLRs)‐Targeting Immunomodulatory Peptides” (Advanced Science, 2024)
